Values of other authors in US20250144059A1, “GUANIDINOACETIC ACID, ITS DERIVATES, COMPOSITIONS AND METHODS OF USE THEREOF” (priority 2023, published 2025).

Details: Merck Index 15th Edition 2013, item #4530

For `N=C(N)NCC(=O)O` [Number G10, guanidinoacetic acid], the solubility in water is given as “fairly soluble in water”.
